Source: US20030099677A1, “Cosmetic composition and method of treating skin” (Unilever Home & Personal Care USA, Division of Conopco. Inc., priority 2001, published 2003)

Experiments:
Format in all cases: cell-based
[1] = tested on: procollagen-I synthesis in human dermal fibroblasts; assay: Dot blot assay for procollagen-I in dermal fibroblast conditioned medium; conditions: for Pro-collagen: 24 hours, relative to vehicle treated control value of 100
Description: (§1) Primary human foreskin fibroblasts at passage 2 (P2) were seeded into 12-well plates at 10000 cells/cm^2 and maintained for 24 hours in an atmosphere of 5% carbon dioxide and 4% oxygen in Dulbeccos Modified Eagles Medium (DMEM) supplemented with 10% foetal calf serum. After this time the cells were washed with serum free DMEM and then incubated in fresh serum free DMEM for a further 60 hours. The fibroblast monolayers were then washed again with serum free DMEM. Test reagents and vehicle controls were added to the cells in triplicate in a final volume of 0.4 ml/well fresh serum free DMEM and incubated for a further 24 hours. This fibroblast conditioned medium was either analysed immediately or snap frozen in liquid nitrogen and stored at −70° C. for future analysis. The cells were then counted and data from the dot-blot analysis subsequently standardised to cell number.
(§2) Samples of conditioned medium from dermal fibroblasts treated with vehicle (as a control) or test reagents were supplemented with 20 mM dithiothreitol (1:10 dilution of 200 mM stock solution) and 0.1% sodium dodecylsulphate (1:100 dilution of 10% stock solution), mixed well and then incubated at 75° C. for 2 minutes. […]
(§3) Following this the Immobilon strips were again washed with TBS/Tween 20 (3×5 minutes) before being allowed to dry in air at room temperature. […] Dot intensity was assessed by computer-assisted image analysis using the quantification tools in ImageQuant™, standardised to cell number and the effects of various test reagents on decorin and procollagen-I synthesis were determined relative to a vehicle treated control value of 100 arbitrary units.
(§4) Tables 1 indicates the effects of trans-7-octadecanoic acid on procollagen-I and decorin synthesis in human dermal fibroblasts, and the amounts in which it was applied. In order to normalize the results the effects of the test substance was determined relative to a vehicle treated control value of 100 arbitrary units.

[2] = tested on: decorin synthesis in human dermal fibroblasts; assay: Dot blot assay for decorin in dermal fibroblast conditioned medium; conditions: for Decorin: 24 hours, relative to vehicle treated control value of 100
Description: as §1, §2, §3, §4

[3] = tested on: Human foreskin keratinocytes; assay: Keratinocyte cornified envelope assay (marker of keratinocyte differentiation)
Description: Method to Assess Effect of Active on Keratinocyte Cornified Envelope Production—a Marker of Keratinocyte Differentiation
(§5) […] The cells were grown for 3 days prior to treatment. The treatment vehicle was DMSO. After 4 days of treatment, the cells were harvested and washed three times with 100 μl phosphate buffered saline (PBS). The cells were then extracted in 1% Triton X100, 50 mM Tris pH 8.0, 0.02 mM Leupeptin, 0.02 mM Pepstatin. 60 μl/well extract was then assayed for DNA concentration (ng/well), Pico Green DNA assay, Molecular Probes.
The cells were then washed in 200 μl PBS, and then 100 μl of 2% SDS, 20 mM DTT was added to each well. The plates were then sealed with a Titertek plate sealer (ICN) and incubated at 60° C. over night in an air-tight damp environment (i.e. a sealed sandwich box lined with damp paper). The extract was then filtered through a PVDF transfer membrane (Bio-rad) under gravity using Dot-Blot apparatus (Bio-rad). The membrane was then washed in distilled water prior to silver staining (Bio-rad Silver Stain kit). The stained dot blot membrane was then analyzed using Phoretix array software (Phoretix International).

[4] = tested on: Human foreskin keratinocytes; assay: Pico Green DNA assay of keratinocyte extracts (proliferation)
Description: as §5

[5] = tested on: Transglutaminase activity in pigskin epidermis; assay: In situ TGase assay in pig skin organ culture; conditions: for Transglutaminase activity (fluorescence-background) Mean: pig organ culture, 48 hours
Description: Porcine back skin was prepared by carefully removing subcutaneous fat and muscle resulting in a skin sample 3-4 mm thick. Hair was clipped and the skin was washed in water, removing any residual blood or dirt. The skin sample was cut into 7 cm×7 cm squares and incubated in 5% Dettol (sterile) for 1 hr at room temp (RT). It was then incubated in DMEM containing ABAM (5 mL/500 mL of medium) for 1 hr. Hydrocortisone 21-hemisuccinate (100îg/mL, sterile filtered) was added to DMEM+ABAM. Tripods and meshes were set up on petri dishes containing 3 ml of media (DMEM/ABAM/hydrocortisone), creating a negative meniscus. Punch biopsies were taken from the skin and placed onto the mesh (4 per dish), and then incubated for 24 hrs at 37° C., 5% CO2 before being treated. Media was changed daily.
A stock solution of 10 mM Biotinylated monodansylcadaverine in 0.013M HCl was, and stored at −20° C. From the stock solution substrate buffer was prepared: 0.1 mM biotinylated monodansylcadaverine, 5 mM CaCl2 in 100 mM Tris HCl. 5 mM CaCl2 was replaced with 200 mM EDTA for a […] control.
Pig skin biopsies were snap frozen in liquid nitrogen and stored at −20° C. Sections were cut (5-8 microns thick, Brights cryostat) and air-dried for 10 minutes at room temperature (RT). The sections were incubated for 30 minutes at RT with 1% BSA in 0.1M Tris/HC1, pH 8.4 then incubated in substrate buffer for 2 hours at RT. The slides were washed to stop the reaction in 25 mM EDTA in PBS for 5 minutes, followed by two washes in PBS. The slides were then incubated in Alexa fluor 488 streptavidin (1:250) for 30 minutes at RT, then washed in PBS as before. The slides were counterstained with 10îg/ml propidium iodide for 10 seconds, then washed in water and mounted in prolong antifade solution. Sections were visualised using a Microscope (Leica, Leitz DMRB, Leitz ploemopak filter block L3, Milton Keynes, Bucks. UK) and images were captured using Image Grabber PC Software (Neotech Ltd. Eastleigh, Hampshire, UK). […]

[6] = human dermal fibroblasts, statement in words
[7] = Table 3, 1 μM, grown in 1.2 mM calcium
[8] = Table 4, 0.001 μM, low calcium, P = 0.002

`CCCCCCCCCC/C=C/CCCCCC(=O)O` [Trans-7-octadecanoic acid, trans-7-octadecanoic acid] was tested, and the Pro-collagen ([1]; 0.1 μM) was 194.96 arbitrary units, the Pro-collagen ([1]; 1.0 μM) was 126.63 arbitrary units and the “effect on synthesis of procollagen-I as compared to the control” value [1, 6] was “significantly up-regulates”. For the same compound, the Decorin ([2]; 1.0 μM) was 163.10 % of vehicle control, the Decorin ([2]; 10.0 μM) was 134.04 % of vehicle control and the “effect on synthesis of decorin as compared to the control” value [2, 6] was “significantly up-regulates”. The “Cornified Envelope Assay Mean” value ([3]; Table 2, 1 μM, grown in 1.2 mM calcium, 4 days of treatment) was 57900, the “Cornified Envelope Assay Mean” value ([3]; Table 2, 10 μM, grown in 1.2 mM calcium, 4 days of treatment) was 54689 and the “Cornified Envelope Assay Mean” value ([3]; Table 2, 50 μM, grown in 1.2 mM calcium, 4 days of treatment) was 49272. For the same compound, the “Cornified Envelope Assay Mean” value ([3]; Table 2, 100 μM, grown in 1.2 mM calcium, 4 days of treatment) was 42110, the “Cornified Envelope Assay Mean” value ([3]; Table 3, 0.1 μM, grown in 1.2 mM calcium) was 37930 and the “Cornified Envelope Assay Mean” value [3, 7] was 47773. For the same compound, the “Cornified Envelope Assay Mean” value [3, 8] was 39627, the “Cornified Envelope assay % control” value [3, 8] was 212 % control and the “Cornified Envelope Assay Mean” value ([3]; Table 4, 0.01 μM, low calcium) was 22221. For the same compound, the “Cornified Envelope assay % control” value ([3]; Table 4, 0.01 μM, low calcium) was 119 % control, the “effect on cornified envelope production” value ([3]; in low calcium, at low concentrations, statement in words) was “induces cornified envelope production” and the “DNA Mean” value ([4]; Table 2, 1 μM, grown in 1.2 mM calcium, p < 0.05) was 9 ng/well. The “DNA Mean” value ([4]; Table 2, 10 μM, grown in 1.2 mM calcium, p < 0.05) was 7 ng/well, the “DNA Mean” value ([4]; Table 2, 50 μM, grown in 1.2 mM calcium) was 6 ng/well and the “DNA Mean” value ([4]; Table 2, 100 μM, grown in 1.2 mM calcium) was 4 ng/well. The “DNA Mean” value ([4]; Table 3, 0.1 μM, grown in 1.2 mM calcium, P < 0.05) was 5 ng/well, the “DNA Mean” value [4, 7] was 6 ng/well and the DNA % control ([4]; Table 4, 0.001 μM, low calcium) was 100 % control. For the same compound, the “DNA Mean” value ([4]; Table 4, 0.001 μM, low calcium) was 1.41 ng/well, the DNA % control ([4]; Table 4, 0.01 μM, low calcium) was 100 % control and the “DNA Mean” value ([4]; Table 4, 0.01 μM, low calcium) was 1.42 ng/well. For the same compound, the “effect on keratinocyte proliferation” value ([4]; in high calcium, statement in words) was “proliferation enhancer”, the “Transglutaminase activity (fluorescence-background) Mean” value ([5]; 0.1 μM) was 1908 and the “effect on transglutamine cross linking activity” value ([5]; 1 μM, intact pigskin epidermis, statement in words) was “induces transglutamine cross linking activity”. For the same compound, the “Transglutaminase activity (fluorescence-background) Mean” value ([5]; 1 μM) was 2268.
